Reference: US8470822B2, “Folate mimetics and folate-receptor binding conjugates thereof” (Purdue Research Foundation, priority 2001, dated 2013)

Assays:
[1] = test system: folate-receptor-positive human KB cell tumor xenografts; experiment: Biodistribution of 111In radiotracer in KB tumor-bearing athymic mice after intravenous administration; format: in vivo; conditions: for Percentage of Injected 111In Dose Per Organ (Tissue): Muscle: muscle assumed 42% of body mass
Experimental: Our primary animal model for evaluation of the biodistribution and pharmacokinetics of folate-receptor-targeted radiopharmaceuticals has been athymic mice bearing subcutaneously implanted folate-receptor-positive human KB cell tumors. […] After 3 weeks on folate-free diet, mouse serum folate levels drop to 25±7 nM from the initial 720±260 nM serum folate level when the animals are fed normal rodent chow. This dietary intervention is believed to be a reasonable manipulation of the animal model, since the mice would have serum folate levels only slightly higher than the folate concentration of normal human serum. Thus, in these mouse biodistribution studies the radiotracer is competing for tumor folate receptors with physiologically relevant concentrations of endogenous unlabeled serum folate.
The substantial retention of ^111In in the kidneys is fully consistent with the binding of ^111In-CYK4-013 to tissue folate receptors, since the renal proximal tubule is a known normal tissue site of folate receptor expression. […] The behavior of the ^111In-CYK4-013 radiopharmaceutical in this animal model (Table 2) is very similar to that observed for ^111In-DTPA-Folate (Table 3).
Results. Similar to ^111In-DTPA-Folate, ^111In-CYK4-013 selectively localized in the folate-receptor-positive tumor xenografts, and afforded prolonged tumor retention of ^111In (5.4±0.8; 5.5±1.1; and 3.6±0.6% ID/g at 1 hour, 4 hours, and 24 hours, respectively) (Table 2). […] Blockable binding was also observed in the kidneys, where the folate receptor occurs in the proximal tubules.

[2] = HPLC analysis of stability of the isolated radiometal complex; format: physicochemical; conditions: room temperature
Experimental: The major radioactive HPLC peak, eluting with a retention time of 14.1 minutes, was collected. […] HPLC conditions: Solvent A=56 mM NH4OAc in water; Solvent B═CH3CN. Flow rate=1 mL/min on 4.6×250 mm C18 reverse-phase column. Linear gradient conditions: 5% B at zero minutes, ramping to 25% B at 25 minutes, then ramping to 60% B at 27 minutes and 100% B at 30 minutes.
HPLC-purified ^64Cu-CY4-036 was removed from the HPLC solvents by solid-phase extraction. A C18 Sep-Pak Light solid phase extraction cartridge (Millipore, Inc.) was conditioned by washing with ethanol followed by water. The HPLC-purified ^64Cu-CY4-036 was loaded onto the C18 Sep-Pak after dilution with water to 5% acetonitrile, the Sep-Pak was washed with 20 mL water, and the ^64Cu-CY4-036 product recovered by fractional elution with ethanol. The resulting ethanol solution of ^64Cu-CY4-036 was evaporated to dryness under a stream of N2 at room temperature, and the ^64Cu-CY4-036 was reconstituted in water. Analytical HPLC confirmed the radiochemical purity, and stability, of the isolated ^64Cu-CY4-036 product. HPLC conditions: Solvent A=53 mM NH4OAc in water; Solvent B═CH3CN. Flow rate=1 mL/min on 4.6×250 mm C18 reverse-phase analytical column. Linear gradient conditions: 5% B at zero minutes, ramping to 25% B at 25 minutes, then ramping to 60% B at 27 minutes and 100% B at 30 minutes.

[3] = 4 Hours, Blocked: co-injection of folic acid dihydrate 4.1 ± 0.4 mg/kg
[4] = 24 Hours after intravenous administration

SMILES: Nc1nc(O)c2nc(CNc3ccc(C(=O)NCCOCCOCCNC(=O)CN(CCN(CCN(CC(=O)O)CC(=O)O)CC(=O)O)CC(=O)O)cc3)cnc2n1.[111In+3] [^111In-CYK4-013]
- Percentage of Injected 111In Dose Per Gram (Tissue Wet Mass): Heart [1, 3]: 0.015 ± 0.010 % ID/g
- Percentage of Injected 111In Dose Per Gram (Tissue Wet Mass): Kidney (one) [1, 3]: 0.90 ± 0.59 % ID/g
- Percentage of Injected 111In Dose Per Gram (Tissue Wet Mass): Liver & Gall Bladder [1, 3]: 0.051 ± 0.029 % ID/g
- Percentage of Injected 111In Dose Per Gram (Tissue Wet Mass): Lungs [1, 3]: 0.041 ± 0.027 % ID/g
- Percentage of Injected 111In Dose Per Gram (Tissue Wet Mass): Muscle [1, 3]: 0.080 ± 0.057 % ID/g
- Percentage of Injected 111In Dose Per Gram (Tissue Wet Mass): Spleen [1, 3]: 0.028 ± 0.017 % ID/g
- Percentage of Injected 111In Dose Per Gram (Tissue Wet Mass): Stomach, Intestines & Contents [1, 3]: 1.7 ± 1.1 % ID/g
- Percentage of Injected 111In Dose Per Organ (Tissue): Blood [1, 3]: 0.025 ± 0.015 Percentage of Injected 111In D
- Percentage of Injected 111In Dose Per Organ (Tissue): Heart [1, 3]: 0.0023 ± 0.0016 Percentage of Injected 111In D
- Percentage of Injected 111In Dose Per Organ (Tissue): Kidney (one) [1, 3]: 0.23 ± 0.15 Percentage of Injected 111In D
- Percentage of Injected 111In Dose Per Organ (Tissue): Liver & Gall Bladder [1, 3]: 0.074 ± 0.044 Percentage of Injected 111In D
- Percentage of Injected 111In Dose Per Organ (Tissue): Lungs [1, 3]: 0.0082 ± 0.0051 Percentage of Injected 111In D
- Percentage of Injected 111In Dose Per Organ (Tissue): Spleen [1, 3]: 0.0049 ± 0.0029 Percentage of Injected 111In D
- Percentage of Injected 111In Dose Per Organ (Tissue): Stomach, Intestines & Contents [1, 3]: 4.6 ± 2.8 Percentage of Injected 111In D
- Percentage of Injected 111In Dose Per Organ (Tissue): Tumor [1, 3]: 0.0094 ± 0.0061 Percentage of Injected 111In D
- Tumor/blood ratio [1, 3]: 7.5 ± 2.4
- Tumor/kidney ratio [1, 3]: 0.12 ± 0.03
- Tumor/liver ratio [1, 3]: 2.2 ± 0.6
- Tumor/muscle ratio [1, 3]: 1.5 ± 0.7
- Percentage of Injected 111In Dose Per Gram (Tissue Wet Mass): Tumor ([1]; 4 Hours, Blocked: co-injection of folic acid dihydrate 4.1 ± 0.4 mg/kg, 0.4 mg/kg): 0.12±0.07 % ID/g
- Percentage of Injected 111In Dose Per Organ (Tissue): Muscle [1, 3]: 1.0 ± 0.7 Percentage of Injected 111In D
- Percentage of Injected 111In Dose Per Gram (Tissue Wet Mass): Blood [1, 4]: 0.035 ± 0.002 % ID/g
- Percentage of Injected 111In Dose Per Gram (Tissue Wet Mass): Heart [1, 4]: 1.2 ± 0.5 % ID/g
- Percentage of Injected 111In Dose Per Gram (Tissue Wet Mass): Kidney (one) [1, 4]: 105 ± 7 % ID/g
- Percentage of Injected 111In Dose Per Gram (Tissue Wet Mass): Liver & Gall Bladder [1, 4]: 1.2 ± 0.6 % ID/g
- Percentage of Injected 111In Dose Per Gram (Tissue Wet Mass): Lungs [1, 4]: 0.72 ± 0.21 % ID/g
- Percentage of Injected 111In Dose Per Gram (Tissue Wet Mass): Muscle [1, 4]: 1.9 ± 0.6 % ID/g
- Percentage of Injected 111In Dose Per Gram (Tissue Wet Mass): Spleen [1, 4]: 0.27 ± 0.08 % ID/g
- Percentage of Injected 111In Dose Per Gram (Tissue Wet Mass): Stomach, Intestines & Contents [1, 4]: 1.2 ± 0.2 % ID/g
- Percentage of Injected 111In Dose Per Gram (Tissue Wet Mass): Tumor [1, 4]: 3.6±0.6 % ID/g
- Percentage of Injected 111In Dose Per Organ (Tissue): Blood [1, 4]: 0.055 ± 0.002 Percentage of Injected 111In D
- Percentage of Injected 111In Dose Per Organ (Tissue): Heart [1, 4]: 0.18 ± 0.06 Percentage of Injected 111In D
- Percentage of Injected 111In Dose Per Organ (Tissue): Kidney (one) [1, 4]: 26.8 ± 2.7 Percentage of Injected 111In D
- Percentage of Injected 111In Dose Per Organ (Tissue): Liver & Gall Bladder [1, 4]: 1.7 ± 0.9 Percentage of Injected 111In D
- Percentage of Injected 111In Dose Per Organ (Tissue): Lungs [1, 4]: 0.34 ± 0.03 Percentage of Injected 111In D
- Percentage of Injected 111In Dose Per Organ (Tissue): Spleen [1, 4]: 0.055 ± 0.017 Percentage of Injected 111In D
- Percentage of Injected 111In Dose Per Organ (Tissue): Stomach, Intestines & Contents [1, 4]: 3.3 ± 0.6 Percentage of Injected 111In D
- Percentage of Injected 111In Dose Per Organ (Tissue): Tumor [1, 4]: 0.42 ± 0.4 Percentage of Injected 111In D
- Tumor/blood ratio [1, 4]: 105 ± 20
- Tumor/kidney ratio [1, 4]: 0.035 ± 0.008
- Tumor/liver ratio [1, 4]: 3.7 ± 1.4
- Tumor/muscle ratio [1, 4]: 2.0 ± 0.6
- Percentage of Injected 111In Dose Per Organ (Tissue): Muscle [1, 4]: 23.1 ± 7.0 Percentage of Injected 111In D
- primary whole-body clearance pathway ([1]; athymic mice, intravenous administration): Urinary excretion
- time the isolated HPLC peak remains stable [2]: at least 7 days
